Measurements taken from patent publication US12331322B2, “Agent for accelerating growth of pluripotent stem cells” (Oriental Yeast Co., Ltd., priority 2017, dated 2025).

Columns and labels:
iPS cells (201B7) [1] = test: WST assay, growth of iPS cells (201B7) in culture medium with β-NMN or NAM; assay type: cell-based, human; conditions: for absorbance values at 450 nm (ref. 595 nm), WST assay, compared with basal medium: Example 2, FIG. 2, 0.2 or 0.4 mM added to E8 medium
Method: As iPS cells, 201B7 line which is human iPS cells was used. For iPS cells, an E8 medium (LTC) containing 19.4 mg/L of insulin, 10.7 mg/L of transferrin, 100 μg/L of bFGF, 2 μg/L of TGFβ, 14 μg/L of sodium selenite, 64 mg/L of ascorbic acid, and 543 mg/L of NaHCO3 in DMEM/F12 was used as the basal medium. First, iPS cells cultured in the basal medium were separated from a culture vessel by a cell-peeling solution and recovered. The recovered cells were counted and seeded in each well of a Matrigel-coated 96-well plate at 1000 to 2000 cells/well. At this time, a ROCK inhibitor was added to each well. The 96-well plate was cultured at 37° C. for 1 day to allow the cells to adhere, and then the medium containing the ROCK inhibitor was removed from each well, the medium was replaced with a medium obtained by adding, to the basal medium, β-NMN (Oriental Yeast Co., Ltd.) so that a final concentration became 0 to 2 mM, and culturing was performed for 3 to 4 days. Thereafter, a growth ability of cells surviving in each well was measured by water-soluble tetrazolium salts (WST) assay. Specifically, after adding WST-1 (manufactured by Nacalai Tesque) to each well and incubating at 37° C. for 1 to 4 hours, absorbance values at 450 nm (ref. 595 nm) were measured using a microplate reader (manufactured by BMG LABTECH). The term “absorbance value (450 to 595 nm)” is an absorbance value at 450 nm using an absorbance value at 595 nm as a reference value, and is specifically a value obtained by subtracting an absorbance value at 595 nm from an absorbance value at 450 nm. Specifically, iPS cells were cultured and the WST assay was performed in the same manner as in Example 1 except that the medium added after removing the medium containing the ROCK inhibitor was changed to a culture medium to which β-NMN was added so that a final concentration became 0, 0.2, or 0.4 mM, or a culture medium to which NAM was added so that a final concentration became 0, 0.2, or 0.4 mM. The iPS cells cultured in the basal medium used in Example 1 were separated from a culture vessel by a cell-peeling solution and recovered. The recovered cells were counted and seeded in each well of a Matrigel-coated 96-well plate at 1000 to 2000 cells/well. At this time, a ROCK inhibitor and β-NMN having a final concentration of 0 to 1 mM were added to each well. The cells in 96-well plate was cultured at 37° C. for 1 day to allow the cells to adhere, and then the medium containing the ROCK inhibitor was removed from each well, the medium was replaced with a culture medium obtained by adding, to the basal medium, β-NMN so that a final concentration became 0 to 1 mM, and culturing was performed for 3 to 4 days. Thereafter, WST assay was performed in the same manner as in Example 1. The results of measuring absorbance values at 450 nm (ref. 595 nm) of each cells cultured in a medium to which both ROCK inhibitor and β-NMN were added are shown in FIG. 4.

iPS cells (253G1) = test: WST assay, growth of iPS cells (253G1) in culture medium with β-NMN or NAM; assay type: cell-based; conditions: for absorbance values at 450 nm (ref. 595 nm), WST assay, compared with basal medium: Example 3, FIG. 3, added to E8 medium
Method: First, iPS cells cultured in the basal medium were separated from a culture vessel by a cell-peeling solution and recovered. The recovered cells were counted and seeded in each well of a Matrigel-coated 96-well plate at 1000 to 2000 cells/well. At this time, a ROCK inhibitor was added to each well. The 96-well plate was cultured at 37° C. for 1 day to allow the cells to adhere, and then the medium containing the ROCK inhibitor was removed from each well, the medium was replaced with a medium obtained by adding, to the basal medium, β-NMN (Oriental Yeast Co., Ltd.) so that a final concentration became 0 to 2 mM, and culturing was performed for 3 to 4 days. Thereafter, a growth ability of cells surviving in each well was measured by water-soluble tetrazolium salts (WST) assay. Specifically, after adding WST-1 (manufactured by Nacalai Tesque) to each well and incubating at 37° C. for 1 to 4 hours, absorbance values at 450 nm (ref. 595 nm) were measured using a microplate reader (manufactured by BMG LABTECH). The term “absorbance value (450 to 595 nm)” is an absorbance value at 450 nm using an absorbance value at 595 nm as a reference value, and is specifically a value obtained by subtracting an absorbance value at 595 nm from an absorbance value at 450 nm. iPS cells were cultured in culture medium containing β-NMN or NAM, and the effects of β-NMN and NAM on growth were compared. As iPS cells, 253G1 line was used. Specifically, iPS cells were cultured and WST assay was performed in the same manner as in Example 1 except that 253G1 line was used instead of 201B7 line.

[2] = system: Human mesenchymal stem cells (human MSCs); test: WST assay, proliferative activity of human mesenchymal stem cells; assay type: cell-based; conditions: 72 hours
Method: Human MSCs purchased from Lonza were used. As a basal medium for human MSCs, a dedicated maintenance medium purchased from Lonza was used. Human MSCs were seeded in 96-well plates (Nunc) at 2×10^3 cells/well (n=3 to 4). They were cultured at 37° C. in a CO2 incubator to allow them to adhere, and then β-NMN (manufactured by Oriental Yeast Co., Ltd.) was added so that a final concentration became 1.0, 0.1, 0.01, or 0.001 mM, and culture was further performed at 37° C. in a CO2 incubator for 72 hours. Thereafter, proliferative activity of cells in each well was measured with WST assay. Specifically, after adding a viable cell count reagent SF (Nacalai Tesque) to each well and incubating at 37° C. for 1 to 4 hours, absorbance at 450 nm was measured with the reference wavelength at 620 nm using a microplate reader (absorbance values at 450 nm (ref. 620 nm) (BMG LABTECH). The term “absorbance values at 450 nm (ref. 620 nm)” is an absorbance value at 450 nm using an absorbance value at 620 nm as a reference value, and is specifically a value obtained by subtracting an absorbance value at 620 nm from an absorbance value at 450 nm. [0045]

iPS cells (201B7) [3] = test: Alkaline phosphatase measurement test (undifferentiated marker) on iPS cells (201B7); assay type: cell-based, human; conditions: Example 4, FIG. 5, β-NMN up to 1 mM added with ROCK inhibitor, vs β-NMN-free medium
Method: iPS cells were cultured in a culture medium containing β-NMN, and the effects of β-NMN on differentiation potential and growth were examined. As iPS cells, a 201B7 line was used. The differentiation potential was examined using the enzyme activity of alkaline phosphatase, which is an undifferentiated marker, as an indicator. First, the iPS cells cultured in the basal medium used in Example 1 were separated from a culture vessel by a cell-peeling solution and recovered. The recovered cells were counted and seeded in each well of a Matrigel-coated 96-well plate at 2000 cells/well. At this time, the ROCK inhibitor and β-NMN having a final concentration of 0 to 1 mM were added to each well. The cells in 96-well plate was cultured at 37° C. for 1 day to allow the cells to adhere, and then the medium containing the ROCK inhibitor was removed from each well, the medium was replaced with a medium obtained by adding, to the basal medium, β-NMN so that a final concentration became 0 to 1 mM, and culturing was performed for 3 to 4 days. During this period, the medium was replaced daily. […] After drying the wells, a bicarbonate buffer containing […], which is an alkaline phosphatase measurement reagent, was added and incubated at 37° C. for 30 minutes, and then absorbance at 405 nm was measured using a microplate reader.

iPS cells (201B7) [4] = test: Flow cytometry of undifferentiated markers (SSEA4, low sulfated keratan sulfate) in iPS cells (201B7); assay type: cell-based, human; conditions: 5 or more passages, vs 0 mM
Method: The differentiation potential of iPS cells maintained and grown in the presence of β-NMN was confirmed. As iPS cells, a 201B7 line was used. Specifically, iPS cells were seeded in a 35 mm dish coated with Matrigel (Corning) at 1.5×10^4 cells/dish. As culture medium in which β-NMN was added to a basal medium (E8 medium) of iPS cells so that a final concentration became 0, 0.25, or 1 mM was used. At the time of seeding, Rho-dependent apoptosis was suppressed using a culture medium to which a Rock inhibitor was added so that a final concentration became 10 μM. The medium was replaced daily and the cells were passaged on day 5 and 6. iPS cells cultured for 5 or more passages in the medium to which β-NMN was added were stained with each of antibodies against SSEA4 and against low sulfated keratan sulfate which are undifferentiated markers, and cells expressing the undifferentiated markers were analyzed with a flow cytometer.

Row | Structure (SMILES) | absorbance values at 450 nm (ref. 595 nm), WST assay, compared with basal medium (iPS cells (201B7) [1]) | absorbance values at 450 nm (ref. 595 nm), WST assay, compared with basal medium (iPS cells (253G1)) | absorbance values at 450 nm (ref. 595 nm), WST assay (iPS cells (201B7) [1]; Example 1, FIG. 1, medium containing 0.1 mM or more of β-NMN vs β-NMN-free medium, 3 to 4 days) | absorbance values at 450 nm (ref. 595 nm), WST assay (iPS cells (201B7) [1]; Example 1, FIG. 1, β-NMN 0.8 mM or more) | absorbance values at 450 nm (ref. 595 nm), WST assay (iPS cells (201B7) [1]; Example 1, FIG. 1, β-NMN 0.1 to 0.2 mM) | absorbance values at 450 nm (ref. 595 nm), WST assay (iPS cells (201B7) [1]; Example 1, FIG. 1, β-NMN 0.2 to 0.6 mM) | absorbance values at 450 nm (ref. 595 nm), WST assay, β-NMN-added medium compared with NAM-added medium (iPS cells (201B7) [1]; Example 2, FIG. 2, final concentration 0.2 mM and 0.4 mM) | absorbance values at 450 nm (ref. 595 nm), WST assay (effect on growth) (iPS cells (201B7) [1]; Example 4, FIG. 4, β-NMN 0 to 1 mM added together with ROCK inhibitor at seeding and afterwards) | proliferative activity of human MSCs (absorbance, WST assay), overall ([2]; addition of β-NMN 0.001 to 1.0 mM) | Absorbance value at450 nm (ref. 620 nm) ([2]; β-NMN concentration 0.001 mM) | Absorbance value at450 nm (ref. 620 nm) ([2]; β-NMN concentration 0.01 mM) | Absorbance value at450 nm (ref. 620 nm) ([2]; β-NMN concentration 0.1 mM) | Absorbance value at450 nm (ref. 620 nm) ([2]; β-NMN concentration 1 mM) | absorbance values at 405 nm, alkaline phosphatase measurement test (iPS cells (201B7) [3]) | absorbance values at 450 nm (ref. 595 nm), WST assay, β-NMN-added medium compared with NAM-added medium (iPS cells (253G1); Example 3, FIG. 3, final concentration 0.2 mM and 0.4 mM) | Expression of SSEA4 (flow cytometry, anti-SSEA4 antibody) (iPS cells (201B7) [4]; Example 6, FIGS. 6 to 8, 0.25 mM or 1 mM of β-NMN) | Expression of low sulfated keratan sulfate (flow cytometry, R10G antibody) (iPS cells (201B7) [4]; Example 6, FIGS. 9 to 11, 0.25 mM or 1 mM of β-NMN)
1 | NC(=O)c1cccnc1 [NAM, nicotinamide, reference compound] | higher absorbance values than cells cultured in the basal medium | slightly higher absorbance value than that of the cells cultured in the basal medium |  |  |  |  |  |  |  |  |  |  |  |  |  |  | 
2 | NC(=O)c1ccc[n+]([C@@H]2O[C@H](COP(=O)([O-])O)[C@@H](O)[C@H]2O)c1 [β-NMN, β-nicotinamide mononucleotide] | higher absorbance values than cells cultured in the basal medium | higher absorbance value than that of the cell cultured in the basal medium | greater than that of the cells cultured in the β-NMN-free medium | tended to slightly decrease | increased in a concentration-dependent manner | the absorbance value was the same | significantly higher than that of the cells cultured in the NAM-added medium | growth-accelerating effect on iPS cells was obtained in a β-NMN concentration-dependent manner | increased the absorbance value and accelerated proliferative activity | 0.573 ± 0.0312 | 0.604 ± 0.0587 | 0.634 ± 0.0411 | 0.615 ± 0.0340 | higher than that of the cells cultured in the β-NMN-free medium | significantly higher than that of the cells cultured in the NAM-added medium | maintained | maintained
